Among the test systems are 786-0 renal; MDA-MB-435; RXF 393 renal; OVCAR-3 ovarian; NCI/ADR-RES ovarian; ACHN renal; NCI-H226 lung; OVCAR-5 ovarian; NCI-H460 lung; SK-OV-3 ovarian; MOLT-4 leukemia; HS 578T breast; HL-60(TB) leukemia; SF-268 CNS; SW-620 colon; NCI-H522 lung; MALME-3M melanoma; SN12C renal; KM12 colon.
Assay in all cases: DTP human tumour cell line panel, 48 h

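Five concentrations, 48 hours, 96-well plates. TGI marks complete inhibition of growth.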

As a reminder, the TGI is the concentration at which net growth stops. Read a high TGI as lower sensitivity of the cells. `CCOC(=O)C(=CNc1ccc(N(C2=NCC(C)S2)c2ccc(F)c(Cl)c2)cc1)C(=O)OCC` (stereo not drawn): the TGI in the assay on 786-0 renal is 33.2 µM; in the assay with MDA-MB-435, 55.9 µM; with RXF 393 renal, 21.3 µM; with OVCAR-3 ovarian, 51.8 µM; in the assay with NCI/ADR-RES ovarian it was 33.7 µM; in the assay on ACHN renal, 39.8 µM. The TGI with NCI-H226 lung was 36.6 µM; with OVCAR-5 ovarian, 39 µM; in the assay with NCI-H460 lung, 49.7 µM; in the assay on SK-OV-3 ovarian, 70.7 µM; in the assay with MOLT-4 leukemia, 41.6 µM; with HS 578T breast, 55.3 µM. Further, the concentration for total growth inhibition (TGI) with HL-60(TB) leukemia was 52.9 µM; with SF-268 CNS, 55.3 µM; in the assay with SW-620 colon it was 57.1 µM; in the assay with NCI-H522 lung, 30.3 µM; in the assay on MALME-3M melanoma, 39.4 µM; with SN12C renal it was 36.2 µM. Besides, the TGI with KM12 colon came out at 33.6 µM.

Consider `COc1cc(/C=C2\C[C@H]3[C@@H]4CCC5=CC(=O)CC[C@]5(C)[C@H]4CC[C@]3(C)C2=O)cc(OC)c1OC`, for which the concentration for total growth inhibition (TGI) is greater than 100 µM in the assay with 786-0 renal; greater than 39.4 µM in the assay on MDA-MB-435; greater than 100 µM in the assay on RXF 393 renal; greater than 49 µM in the assay with OVCAR-3 ovarian; greater than 100 µM in the assay on NCI/ADR-RES ovarian; greater than 100 µM in the assay on ACHN renal. In addition, the total growth inhibition concentration (TGI) in the assay with NCI-H226 lung, in the assay with OVCAR-5 ovarian, with NCI-H460 lung, with SK-OV-3 ovarian, in the assay with MOLT-4 leukemia and in the assay on HS 578T breast was greater than 100 µM throughout. The concentration for total growth inhibition (TGI) in the assay on HL-60(TB) leukemia is 7.55 µM; with SF-268 CNS, greater than 100 µM; in the assay with SW-620 colon it was greater than 100 µM; in the assay on NCI-H522 lung, greater than 100 µM; in the assay on MALME-3M melanoma, greater than 100 µM; in the assay with SN12C renal, greater than 100 µM. The total growth inhibition concentration (TGI) in the assay on KM12 colon was greater than 37.2 µM.

Take `O=c1nc2ccc([N+](=O)[O-])cc2[n+]([O-])[nH]1`: the TGI with 786-0 renal, in the assay on MDA-MB-435, with RXF 393 renal, in the assay on OVCAR-3 ovarian, in the assay with NCI/ADR-RES ovarian and in the assay with ACHN renal was greater than 100 µM throughout. For the same molecule, the total growth inhibition concentration (TGI) in the assay on NCI-H226 lung, in the assay with OVCAR-5 ovarian, in the assay with NCI-H460 lung, with SK-OV-3 ovarian, in the assay with MOLT-4 leukemia and in the assay on HS 578T breast was greater than 100 µM in each case. Also, the total growth inhibition concentration (TGI) in the assay on HL-60(TB) leukemia, in the assay on SF-268 CNS, with SW-620 colon, with NCI-H522 lung, in the assay with MALME-3M melanoma and with SN12C renal was greater than 100 µM each time. The total growth inhibition concentration (TGI) in the assay on KM12 colon was greater than 100 µM.

Consider `CC1(C)CO[P@@](=S)(c2ccccn2)O[C@@H]1c1ccccc1`, for which the concentration for total growth inhibition (TGI) in the assay with 786-0 renal, in the assay with MDA-MB-435, with RXF 393 renal, in the assay with OVCAR-3 ovarian, with NCI/ADR-RES ovarian and in the assay on ACHN renal was greater than 100 µM throughout. The TGI in the assay with NCI-H226 lung, in the assay with OVCAR-5 ovarian, in the assay with NCI-H460 lung, in the assay with SK-OV-3 ovarian, in the assay with MOLT-4 leukemia and in the assay with HS 578T breast was greater than 100 µM in each case. Further, the TGI in the assay on HL-60(TB) leukemia, in the assay on SF-268 CNS, with SW-620 colon, in the assay on NCI-H522 lung, in the assay on MALME-3M melanoma and in the assay on SN12C renal was greater than 100 µM throughout. The total growth inhibition concentration (TGI) with KM12 colon was greater than 100 µM.

With `COC(=O)c1c(CC(Cc2ccc3c(c2)CCCC3)C(=O)O)ccc2c1CCCC2` (stereo not drawn), the TGI is greater than 100 µM with 786-0 renal; greater than 100 µM in the assay with MDA-MB-435; greater than 100 µM in the assay with RXF 393 renal; 34.3 µM in the assay with OVCAR-3 ovarian; 34.4 µM in the assay with NCI/ADR-RES ovarian; greater than 100 µM in the assay with ACHN renal. Moreover, the total growth inhibition concentration (TGI) in the assay with NCI-H226 lung is greater than 100 µM; with OVCAR-5 ovarian it was greater than 100 µM; in the assay on NCI-H460 lung, 47.9 µM; in the assay with SK-OV-3 ovarian, greater than 100 µM; with MOLT-4 leukemia, greater than 100 µM; with HS 578T breast it was 79.4 µM. The TGI was 46.5 µM in the assay with HL-60(TB) leukemia; greater than 100 µM in the assay on SF-268 CNS; greater than 100 µM in the assay on SW-620 colon; 34.1 µM in the assay with NCI-H522 lung; greater than 100 µM in the assay on MALME-3M melanoma; greater than 100 µM in the assay with SN12C renal. In the assay on KM12 colon, this molecule gave a TGI of 77.2 µM.

For the molecule `O=C1C[C@@]23CCC4(CC2CCC[C@H]3O1)OCCO4` (stereo partly drawn), the TGI with 786-0 renal, in the assay with MDA-MB-435, in the assay on RXF 393 renal, in the assay on OVCAR-3 ovarian, in the assay with NCI/ADR-RES ovarian and in the assay with ACHN renal was greater than 100 µM in each case. Besides, the concentration for total growth inhibition (TGI) with NCI-H226 lung, in the assay on OVCAR-5 ovarian, with NCI-H460 lung, in the assay on SK-OV-3 ovarian, in the assay with MOLT-4 leukemia and in the assay on HS 578T breast was greater than 100 µM each time. Besides, the concentration for total growth inhibition (TGI) in the assay on HL-60(TB) leukemia, with SF-268 CNS, in the assay on SW-620 colon, with NCI-H522 lung, in the assay with MALME-3M melanoma and with SN12C renal was greater than 100 µM in each case. This molecule also had a TGI in the assay with KM12 colon greater than 100 µM.

Turning to `CC12CC(=O)Nc3ccccc3N1C(c1ccccc1)=NO2` (stereo not drawn), the total growth inhibition concentration (TGI) in the assay with 786-0 renal, with MDA-MB-435, in the assay with RXF 393 renal, in the assay with OVCAR-3 ovarian, in the assay with NCI/ADR-RES ovarian and with ACHN renal was greater than 100 µM each time. Also, the TGI with NCI-H226 lung, in the assay on OVCAR-5 ovarian, with NCI-H460 lung, in the assay with SK-OV-3 ovarian, in the assay with MOLT-4 leukemia and with HS 578T breast was greater than 100 µM in each case. The concentration for total growth inhibition (TGI) with HL-60(TB) leukemia, in the assay with SF-268 CNS, with SW-620 colon, in the assay with NCI-H522 lung, with MALME-3M melanoma and with SN12C renal was greater than 100 µM each time. Moreover, the TGI in the assay on KM12 colon is greater than 100 µM.

The record behind these values is PubChem BioAssay (NCI).
